The target in one assay is T1, MMP-2 (Homo sapiens, UniProt P08253).
T1 construct: purchased Oncogene Research Products (Calbiochem) PF023
T1 sequence (P08253 110-660): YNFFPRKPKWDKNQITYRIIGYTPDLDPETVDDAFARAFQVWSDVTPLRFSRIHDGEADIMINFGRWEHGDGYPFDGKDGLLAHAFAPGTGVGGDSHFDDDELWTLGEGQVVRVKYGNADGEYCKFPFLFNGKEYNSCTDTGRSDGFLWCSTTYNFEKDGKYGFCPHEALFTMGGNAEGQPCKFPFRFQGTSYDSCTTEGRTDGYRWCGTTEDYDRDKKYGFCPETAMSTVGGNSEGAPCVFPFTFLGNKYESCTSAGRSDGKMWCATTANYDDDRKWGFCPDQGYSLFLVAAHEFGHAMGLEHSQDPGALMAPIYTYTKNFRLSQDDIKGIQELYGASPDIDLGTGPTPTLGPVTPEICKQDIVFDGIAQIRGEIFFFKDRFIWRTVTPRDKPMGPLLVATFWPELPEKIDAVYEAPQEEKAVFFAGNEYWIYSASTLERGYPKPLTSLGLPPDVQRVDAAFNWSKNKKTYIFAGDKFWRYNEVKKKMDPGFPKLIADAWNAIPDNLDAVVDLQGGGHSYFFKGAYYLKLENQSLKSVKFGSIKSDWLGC
The assay is described as follows: In-vitro fluorescence assay of MMP-2 activity. Format: biochemical. To be noted: recombinant human MMP-2; read-out: MMP-2 IC50.

The next assay addresses T2, MMP-13 (Homo sapiens, UniProt P45452).
T2 construct: made in house
The assay is described as follows: In-vitro fluorescence assay of MMP-13 activity. Format: biochemical.

[1] abbreviates: recombinant human catalytic domain of MMP-13, read-out: MMP-13 IC50.

Like-named read-outs stand apart in the source and are kept apart here.

With `COC(=O)C(C)(C)Oc1cccc2oc(C(=O)Nc3ccc(-c4ccc(S(=O)(=O)N[C@H](C(=O)O)C(C)C)cc4)cc3)c(C)c12` [Example 156, L-2-(4′-{[4-(1-Methoxycarbonyl-1-methyl-ethoxy)-3-methyl-benzofuran-2-carbonyl]-amino}-biphenyl-4-sulfonylamino)-3-methyl-butyric acid], the IC50 at MMP-2 worked out at 6200 nM; on MMP-13 (setting [1]), 25 nM.
Turning to `Cc1c(C(=O)Nc2ccc(-c3ccc(S(=O)(=O)N[C@H](C(=O)O)C(C)C)cc3)cc2)oc2cccc(NC(=O)C(C)C)c12` [Example 50, L-2-{4′-[(4-Isobutyrylamino-3-methyl-benzofuran-2-carbonyl)-amino]-biphenyl-4-sulfonylamino}-3-methyl-butyric acid], the IC50 came out at 7710 nM on MMP-2 and 45 nM on MMP-13 (setting [1]).
The matching figures for `Cc1c(C(=O)Nc2ccc(-c3ccc(S(=O)(=O)N[C@H](C(=O)O)C(C)C)cc3)cc2)oc2cccc(NS(=O)(=O)c3cccs3)c12` [Example 72, L-3-Methyl-2-(4′-{[3-methyl-4-(thiophene-2-sulfonylamino)-benzofuran-2-carbonyl]-amino}-biphenyl-4-sulfonylamino)-butyric acid]: 3980 nM and 8.5 nM.
The matching figures for `CC(C)[C@H](NS(=O)(=O)c1ccc(-c2ccc(NC(=O)c3cc4cc(Br)ccc4o3)cc2)cc1)C(=O)O` [Example 84, N-[(4′-{[(5-Bromo-1-benzofuran-2-yl)carbonyl]amino}-1,1′-biphenyl-4-yl)sulfonyl]-L-valine]: 0.9 nM and 0.6 nM.
For the compound `COc1c(Cl)cc(Cl)c2oc(C(=O)Nc3ccc(-c4ccc(S(=O)(=O)N[C@H](C(=O)O)C(C)C)cc4)cc3)c(C)c12` [Example 117, (S)-2-{4′-[(5,7-Dichloro-4-methoxy-3-methyl-benzofuran-2-carbonyl)-amino]-biphenyl-4-sulfonylamino}-3-methyl-butyric acid], the values for the IC50 on MMP-2 and on MMP-13 (setting [1]) were 20000 nM and 199 nM, respectively.
The matching figures for `Cc1c(C(=O)Nc2ccc(-c3ccc(S(=O)(=O)N[C@H](C(=O)O)C(C)C)cc3)cc2)oc2cccc(OCc3ccncc3)c12` [Example 179, (S)-3-Methyl-2-(4′-{[3-methyl-4-(pyridin-4-ylmethoxy)-benzofuran-2-carbonyl]-amino}-biphenyl-4-sulfonylamino)-butyric acid]: 4000 nM and 7.1 nM.
With `CCc1cccc2oc(C(=O)Nc3ccc(-c4ccc(S(=O)(=O)N[C@H](C(=O)O)C(C)C)cc4)cc3)c(C)c12` [Example 87, N-[(4′-{[(4-Ethyl-3-methyl-1-benzofuran-2-yl)carbonyl]amino}-1,1′-biphenyl-4-yl)sulfonyl]-L-valine], the IC50 turned out to be 1410 nM on MMP-2 and 2.3 nM at MMP-13 (setting [1]).
The like results for `CCS(=O)(=O)N(C)c1cccc2oc(C(=O)Nc3ccc(-c4ccc(S(=O)(=O)N[C@H](C(=O)O)C(C)C)cc4)cc3)c(C)c12` [Example 70, L-2-(4′-{[4-(Ethanesulfonyl-methyl-amino)-3-methyl-benzofuran-2-carbonyl]-amino}-biphenyl-4-sulfonylamino)-3-methyl-butyric acid] were, in that order, 3470 nM and 14 nM.
The like results for `Cc1c(C(=O)Nc2ccc(-c3ccc(S(=O)(=O)N[C@H](C(=O)O)C(C)C)cc3)cc2)oc2cccc(NC(=O)OC(C)(C)C)c12` [Example 59, L-2-{4′-[(4-tert-Butoxycarbonylamino-3-methyl-benzofuran-2-carbonyl)-amino]-biphenyl-4-sulfonylamino}-3-methyl-butyric acid] were, in that order, 3270 nM and 32 nM.
For `Cc1c(C(=O)Nc2ccc(-c3ccc(S(=O)(=O)N[C@H](C(=O)O)C(C)C)cc3)cc2)oc2cccc(-c3ccoc3)c12` [Example 113, (S)-2-{4′-[(4-Furan-3-yl-3-methyl-benzofuran-2-carbonyl)-amino]-biphenyl-4-sulfonylamino}-3-methyl-butyric acid], the 50% inhibitory concentration (IC50) at MMP-2 is 2060 nM; on MMP-13 (MMP-13 IC50, recombinant human catalytic domain of MMP-13), 6.4 nM.
Consider `Cc1c(C(=O)Nc2ccc(-c3ccc(S(=O)(=O)N[C@H](C(=O)O)C(C)C)cc3)cc2)oc2cccc(OCC(=O)N(C)C)c12` [Example 176, (S)-2-{4′-[(4-Dimethylcarbamoylmethoxy-3-methyl-benzofuran-2-carbonyl)-amino]-biphenyl-4-sulfonylamino}-3-methyl-butyric acid], for which the values for the 50% inhibitory concentration (IC50) on MMP-2 and at MMP-13 (setting [1]) were 4340 nM and 20 nM, respectively.
The matching figures for `CCOC(=O)COc1cccc2oc(C(=O)Nc3ccc(-c4ccc(S(=O)(=O)N[C@H](C(=O)O)C(C)C)cc4)cc3)c(C)c12` [Example 157, L-2-{4′-[(4-Ethoxycarbonylmethoxy-3-methyl-benzofuran-2-carbonyl)-amino]-biphenyl-4-sulfonylamino}-3-methyl-butyric acid]: 2050 nM and 8.8 nM.
For `Cc1c(C(=O)Nc2ccc(-c3ccc(S(=O)(=O)N[C@H](C(=O)O)C(C)C)cc3)cc2)oc2cccc(N3CCCC3)c12` [Example 63, L-3-Methyl-2-{4′-[(3-methyl-4-pyrrolidin-1-yl-benzofuran-2-carbonyl)-amino]-biphenyl-4-sulfonylamino}-butyric acid], the IC50 was 5000 nM at MMP-2 and 28 nM at MMP-13 (setting [1]).
On to `CCS(=O)(=O)Nc1cccc2oc(C(=O)Nc3ccc(-c4ccc(S(=O)(=O)N[C@H](C(=O)O)C(C)C)cc4)cc3)c(C)c12` [Example 68, L-2-{4′-[(4-Ethanesulfonylamino-3-methyl-benzofuran-2-carbonyl)-amino]-biphenyl-4-sulfonylamino}-3-methyl-butyric acid], for which the IC50 at MMP-2 stood at 1650 nM; at MMP-13 (setting [1]), 12 nM.
As for `COCc1cccc2oc(C(=O)Nc3ccc(-c4ccc(S(=O)(=O)N[C@H](C(=O)O)C(C)C)cc4)cc3)c(C)c12` [Example 100, N-{[4′-({[4-(methoxymethyl)-3-methyl-1-benzofuran-2-yl]carbonyl}amino)-1,1′-biphenyl-4-yl]sulfonyl}-L-valine], the values for the 50% inhibitory concentration (IC50) on MMP-2 and at MMP-13 (setting [1]) were 2400 nM and 2.6 nM, respectively.
The like results for `Cc1c(C(=O)Nc2ccc(-c3ccc(S(=O)(=O)N[C@H](C(=O)O)C(C)C)cc3)cc2)oc2cccc(N(C)S(C)(=O)=O)c12` [Example 37, L-2-(4′-{[4-(Methanesulfonyl-methyl-animo)-3-methyl-benzofuran-2-carbonyl]-amino}-biphenyl-4-sulfonylamino)-3-methyl-butyric acid] were, in that order, 2340 nM and 16 nM.
The matching figures for `CCc1ccc2oc(C(=O)Nc3ccc(-c4ccc(S(=O)(=O)N[C@H](C(=O)O)C(C)C)cc4)cc3)c(C)c2c1OCc1ccccc1` [Example 89, N-{[4′-({[4-(Benzyloxy)-5-ethyl-3-methyl-1-benzofuran-2-yl]carbonyl}amino)-1,1′-biphenyl-4-yl]sulfonyl}-L-valine]: 4340 nM and 67 nM.
The like results for `COc1c(I)ccc2oc(C(=O)Nc3ccc(-c4ccc(S(=O)(=O)N[C@H](C(=O)O)C(C)C)cc4)cc3)c(C)c12` [Example 120, (S)-2-{4′-[(5-Iodo-4-methoxy-3-methyl-benzofuran-2-carbonyl)-amino]-biphenyl-4-sulfonylamino}-3-methyl-butyric acid] were, in that order, 1370 nM and 2.1 nM.

For orientation: IC50 means the concentration that gives 50% inhibition.
